Literature values, collected in US8394309B2, “Resin film and method for producing it, polarizer and liquid crystal display device” (FUJIFILM Corporation, priority 2010, dated 2013).

details: Table 1

SMILES | Organic acid: Acid dissociation constant
O=C(O)CC(O)(CC(=O)O)C(=O)O [Citric acid, reference compound] | 4.0
CCCCCCCC/C=C/CCCCCCCC(=O)OCC(O)COC(=O)CC(O)(CC(=O)O)C(=O)O (centres unmarked) [Citric and oleic acid esters of glycerol, citric and oleic acid esters of glycerol] | 3.2
O=C(O)CN(CC(=O)O)Cc1ccccc1 [N-benzylimino-diacetic acid, N-benzyliminodiacetic acid] | 3.2
CCCCCCCC/C=C\CCCCCCCC(=O)O [Oleic acid] | 4.9
CCCCOB(OCCCC)OCCCC [Tributyl borate, reference compound] | 6.0

The next lines start with the values.

Organic acid: Acid dissociation constant | SMILES
4.8 | CCCCCCCCCCC(=O)O [Undecanoic acid]
4.8 | CCCCC(=O)O [Valeric acid, reference compound]
4.5 | CCCCCCCCCCCCN(CC(=O)O)CC(=O)O [lauramino-diacetic acid, lauraminodiacetic acid]
